Measurements reported in US10508077B2 (FORMA Therapeutics, Inc., priority 2015, dated 2019).

Tests used:
[1] = target: T1, Full length human recombinant HDAC8 protein (Homo sapiens, UniProt Q9BY41); test: In vitro histone deacetylase assay: enzymatic HDAC8 assay, electrophoretic mobility shift; type: biochemical; conditions: substrate RHKK(Ac)-NH2, 1 nM enzyme, compounds listed under IC50 range headings
T1 construct: Full length human recombinant HDAC8 protein was expressed in baculoviral system; made in house
T1 sequence (Q9BY41 1-377): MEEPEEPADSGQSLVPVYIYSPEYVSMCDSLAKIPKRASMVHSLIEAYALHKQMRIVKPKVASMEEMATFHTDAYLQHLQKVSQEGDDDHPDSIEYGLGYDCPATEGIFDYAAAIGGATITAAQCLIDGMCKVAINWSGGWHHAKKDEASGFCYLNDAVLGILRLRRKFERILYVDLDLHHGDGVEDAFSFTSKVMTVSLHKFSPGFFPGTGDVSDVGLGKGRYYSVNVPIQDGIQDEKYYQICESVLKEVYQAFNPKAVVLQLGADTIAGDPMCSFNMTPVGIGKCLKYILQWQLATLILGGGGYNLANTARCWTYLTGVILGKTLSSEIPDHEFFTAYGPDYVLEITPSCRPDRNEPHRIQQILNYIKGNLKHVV
In short: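 Readout was microfluidic mobility-shift separation of deacetylated product from fluorescent RHKK(Ac)-NH2 substrate (2 µM), after reaction with 1 nM recombinant full-length human HDAC8 at 25 °C, pH 7.5, stopped with SDS. Twelve 3-fold-spaced concentrations tested; product/sum ratios normalized to controls and fitted with a 4-parameter model for IC50.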

[2] = target: T2, Recombinant N-terminal GST tag full-length human HDAC8 (Homo sapiens, UniProt Q9BY41); test: HDAC8 probe binding assay, time resolved fluorescence (TRF); conditions: fluorescein labeled pan-HDAC inhibitor probe, 16 hours incubation, compounds listed under IC50 range headings
T2 construct: Recombinant N-terminal GST tag full-length human HDAC8; purchased SignalChem H90-30G-1000; host or cells: Sf9 insect cells (baculovirus)
T2 sequence (Q9BY41 1-377): T1 sequence (Q9BY41 1-377)
Method: The HDAC8 probe binding assay was performed using a time resolved fluorescence (TRF) assay format. Recombinant N-terminal GST tag full-length human HDAC8 was expressed and purified from baculovirus in Sf9 insect cells (SignalChem, #H90-30G-1000), Each assay was performed in 1536 black well microplates (Corning, #3936) in a final volume of 4 μL in assay buffer containing 50 mM HEPES (pH 7.5), 50 mM KCl, 50 mM NaCl, 0.5 mM GSH (L-Glutathione reduced, Sigma #G4251), 0.03% BGG (0.22 μM filtered, Sigma, #G7516-25G), and 0.01% Triton X-100 (Sigma, #T9284-10L). 20 nL of 10-point, 3-fold serial dilution in DMSO was pre-dispensed into respective wells of 1536 assay plates for a final test concentration range of 25 μM to 1.3 nM respectively. The final concentration in the assay of HDAC8 and probe (a fluorescein labeled pan-HDAC inhibitor) was 2.5 nM and 1.5 nM respectively. 2 μL of 2× probe and 2× anti-GST Terbium (Cisbio, #61GSTXLB) was added to assay plates followed by 2 μL of 2× HDAC8. Plates were incubated for 16 hours at room temperature before time resolved fluorescence was read on the Envision (Excitation at 340 nm, and Emission at 485 nm and 535 nm, Perkin Elmer).
Data from HDAC8 Assays were reported as percent inhibition (inh) compared with control wells based on the following equation: % inh=1−((FLU−AveLow)/(AveHigh−AveLow)) where FLU=measured time resolved fluorescence. AveLow=average time resolved fluorescence of no enzyme control (n=32). AveHigh=average time resolved fluorescence of DMSO control (n=32). IC50 values were determined by curve fitting of the standard 4 parameter logistic fitting algorithm included in the Activity Base software package: IDBS XE Designer Model205. Data is fitted using the Levenburg Marquardt algorithm.

CC(C)(C)OC(=O)N1CCCC12CCN(c1ccccc1/C=C/C(=O)NO)C2 (stereo not drawn) [Example I-541, tert-butyl (E)-7-(2-(3-(hydroxyamino)-3-oxoprop-1-en-1-yl)phenyl)-1,7-diazaspiro[4.4]nonane-1-carboxylate]
IC50 [1]: < 1000 nM
IC50 [2]: ≤ 1000 nM

CN(C(=O)c1cccc(C(F)(F)F)c1)c1ccccc1/C=C/C(=O)NO [Example I-54, (E)-N-(2-(3-(hydroxyamino)-3-oxoprop-1-en-1-yl)phenyl)-N-methyl-3-(trifluoromethyl)benzamide]
IC50 [1]: < 1000 nM
IC50 [2]: ≤ 1000 nM

N#Cc1cccc(CNc2ccccc2/C=C/C(=O)NO)c1 [Example I-45, (E)-3-(2-((3-cyanobenzyl)amino)phenyl)-N-hydroxyacrylamide]
IC50 [1]: < 1000 nM
IC50 [2]: 1000 to 100000 nM

O=C(/C=C/c1ccccc1S(=O)(=O)C1CCN(C(=O)Cc2ccc(Cl)cc2)CC1)NO [II-29]
IC50 [1]: < 1000 nM
IC50 [2]: ≤ 1000 nM

O=C(/C=C/c1ccccc1NC(=O)c1ccc(-n2cccn2)cc1)NO [Example I-72, (E)-N-(2-(3-(hydroxyamino)-3-oxoprop-1-en-1-yl)phenyl)-4-(1H-pyrazol-1-yl)benzamide]
IC50 [1]: < 1000 nM
IC50 [2]: ≤ 1000 nM

O=C(/C=C/c1ccccc1C(=O)N1CCN(c2cnccn2)CC1)NO [II-22, (E)-N-hydroxy-3-(2-(4-(pyrazin-2-yl)piperazine-1-carbonyl)phenyl)acrylamide]
IC50 [1]: < 1000 nM
IC50 [2]: ≤ 1000 nM

O=C(/C=C/c1ccccc1NCc1ccnc(N2CCOCC2)c1)NO [Example I-98, (E)-N-hydroxy-3-(2-(((2-morpholinopyridin-4-yl)methyl)amino)phenyl)acrylamide]
IC50 [1]: < 1000 nM
IC50 [2]: ≤ 1000 nM

CC(=O)N1CC2(CCCN2c2ccccc2/C=C/C(=O)NO)C1 [Example I-547, (E)-3-(2-(2-acetyl-2,5-diazaspiro[3.4]octan-5-yl)phenyl)-N-hydroxyacrylamide]
IC50 [1]: < 1000 nM
IC50 [2]: ≤ 1000 nM

CC(C)(C)OC(=O)N1CCC2(CC1)CCN(c1ccccc1/C=C/C(=O)NO)C2=O [Example I-310, tert-butyl (E)-2-(2-(3-(hydroxyamino)-3-oxoprop-1-en-1-yl)phenyl)-1-oxo-2,8-diazaspiro[4.5]decane-8-carboxylate]
IC50 [1]: < 1000 nM
IC50 [2]: ≤ 1000 nM

CCn1c(C(=O)Nc2ccccc2/C=C/C(=O)NO)cc2ccccc21 [Example I-79, (E)-1-ethyl-N-(2-(3-(hydroxyamino)-3-oxoprop-1-en-1-yl)phenyl)-1H-indole-2-carboxamide]
IC50 [1]: < 1000 nM
IC50 [2]: ≤ 1000 nM

O=C(/C=C/c1ccccc1NC(=O)[C@@H]1C[C@H]2CC[C@@H]1O2)NO [Example I-282, (1S,2R,4R)-N-(2-((E)-3-(hydroxyamino)-3-oxoprop-1-en-1-yl)phenyl)-7-oxabicyclo[2.2.1]heptane-2-carboxamide]
IC50 [1]: < 1000 nM
IC50 [2]: ≤ 1000 nM

CC(C)(C)OC(=O)N1CC2(CCCN2c2ccccc2/C=C/C(=O)NO)C1 [Example I-542, tert-butyl (E)-5-(2-(3-(hydroxyamino)-3-oxoprop-1-en-1-yl)phenyl)-2,5-diazaspiro[3.4]octane-2-carboxylate]
IC50 [1]: < 1000 nM
IC50 [2]: ≤ 1000 nM

O=C(/C=C/c1ccccc1N1CCN(S(=O)(=O)c2ccc(OC(F)(F)F)cc2)CC1=O)NO [Example I-527, (E)-N-hydroxy-3-(2-(2-oxo-4-((4-(trifluoromethoxy)phenyl)sulfonyl)piperazin-1-yl)phenyl)acrylamide]
IC50 [1]: < 1000 nM
IC50 [2]: ≤ 1000 nM

COc1ccccc1Oc1ccccc1C(=O)Nc1ccccc1/C=C/C(=O)NO [Example I-304, (E)-N-(2-(3-(hydroxyamino)-3-oxoprop-1-en-1-yl)phenyl)-2-(2-methoxyphenoxy)benzamide]
IC50 [1]: < 1000 nM
IC50 [2]: ≤ 1000 nM

O=C(/C=C/c1ccccc1N1CCN(C(=O)c2cnn3c2OCCC3)CC1)NO [Example I-204, (E)-3-(2-(4-(6,7-dihydro-5H-pyrazolo[5,1-b][1,3]oxazine-3-carbonyl)piperazin-1-yl)phenyl)-N-hydroxyacrylamide]
IC50 [1]: < 1000 nM
IC50 [2]: ≤ 1000 nM

O=C(/C=C/c1ccccc1NCc1cccnc1)NO [Example I-93]
IC50 [1]: < 1000 nM
IC50 [2]: ≤ 1000 nM

O=C(/C=C/c1ccccc1NC(=O)c1cnc(-c2ccccn2)s1)NO [Example I-312, (E)-N-(2-(3-(hydroxyamino)-3-oxoprop-1-en-1-yl)phenyl)-2-(pyridin-2-yl)thiazole-5-carboxamide]
IC50 [1]: < 1000 nM
IC50 [2]: ≤ 1000 nM

O=C(/C=C/c1ccccc1N1CC(c2ccccc2)CC1=O)NO (stereo not drawn) [Example I-309, (E)-N-hydroxy-3-(2-(2-oxo-4-phenylpyrrolidin-1-yl)phenyl)acrylamide]
IC50 [1]: < 1000 nM
IC50 [2]: ≤ 1000 nM

O=C(/C=C/c1ccccc1NC(=O)c1nc(Oc2ccccc2)cs1)NO [Example I-544, N-{2-[(1E)-2-(hydroxycarbamoyl)eth-1-en-1-yl]phenyl}-4-phenoxy-1,3-thiazole-2-carboxamide]
IC50 [1]: < 1000 nM
IC50 [2]: ≤ 1000 nM

O=C(/C=C/c1ccccc1NCc1ccccc1)NO [Example I-40]
IC50 [1]: < 1000 nM
IC50 [2]: ≤ 1000 nM

Cc1ccc(Oc2ccccc2C(=O)Nc2ccccc2/C=C/C(=O)NO)cn1 [Example I-535, (E)-N-(2-(3-(hydroxyamino)-3-oxoprop-1-en-1-yl)phenyl)-2-((6-methylpyridin-3-yl)oxy)benzamide]
IC50 [1]: < 1000 nM
IC50 [2]: ≤ 1000 nM

O=C(/C=C/c1ccccc1NC(=O)c1cnn(-c2ccc(Cl)cc2)c1C(F)(F)F)NO [Example I-266, (E)-1-(4-chlorophenyl)-N-(2-(3-(hydroxyamino)-3-oxoprop-1-en-1-yl)phenyl)-5-(trifluoromethyl)-1H-pyrazole-4-carboxamide]
IC50 [1]: < 1000 nM
IC50 [2]: ≤ 1000 nM

O=C(/C=C/c1ccccc1NC(=O)c1cc2ccccc2[nH]1)NO [Example I-77]
IC50 [1]: < 1000 nM
IC50 [2]: ≤ 1000 nM

O=C(/C=C/c1ccccc1C(=O)N1CCCC1)NO [II-15, (E)-N-hydroxy-3-(2-(pyrrolidine-1-carbonyl)phenyl)acrylamide]
IC50 [1]: < 1000 nM
IC50 [2]: ≤ 1000 nM

O=C(/C=C/c1ccccc1NC(=O)c1csc(-c2cccnc2)n1)NO [Example I-75, (E)-N-(2-(3-(hydroxyamino)-3-oxoprop-1-en-1-yl)phenyl)-2-(pyridin-3-yl)thiazole-4-carboxamide]
IC50 [1]: < 1000 nM
IC50 [2]: ≤ 1000 nM

CS(=O)(=O)c1nc(C(=O)Nc2ccccc2/C=C/C(=O)NO)c2ccccn12 [Example I-85, (E)-N-(2-(3-(hydroxyamino)-3-oxoprop-1-en-1-yl)phenyl)-3-(methylsulfonyl)imidazo[1,5-a]pyridine-1-carboxamide]
IC50 [1]: < 1000 nM
IC50 [2]: ≤ 1000 nM

O=C(/C=C/c1ccccc1NC(=O)c1ccccc1Oc1ccc(F)cc1)NO [Example I-306, (E)-2-(4-fluorophenoxy)-N-(2-(3-(hydroxyamino)-3-oxoprop-1-en-1-yl)phenyl)benzamide]
IC50 [1]: < 1000 nM
IC50 [2]: ≤ 1000 nM

CC(C)C(=O)Nc1ccccc1/C=C/C(=O)NO [Example I-69, (E)-N-hydroxy-3-(2-isobutyramidophenyl)acrylamide]
IC50 [1]: < 1000 nM
IC50 [2]: ≤ 1000 nM

O=C(/C=C/c1ccccc1NC(=O)[C@H]1C[C@H]1c1ccccc1)NO [Example I-73, (1S,2R)-N-(2-((E)-3-(hydroxyamino)-3-oxoprop-1-en-1-yl)phenyl)-2-phenylcyclopropane-1-carboxamide]
IC50 [1]: < 1000 nM
IC50 [2]: ≤ 1000 nM

O=C(/C=C/c1ccccc1N1CC[C@H](c2ccccc2)C1=O)NO (single isomer, unassigned) [Example I-327]
IC50 [1]: < 1000 nM
IC50 [2]: ≤ 1000 nM
